Data reported in publication PMC11173529, “Structure–Activity Relationship Studies in a Series of Xanthine Inhibitors of SLACK Potassium Channels” (Molecules, 2024).

Molecular target: T1, SLICK (Homo sapiens, UniProt Q6UVM3)
T1 construct: expressed in transfected cells; host or cells: HEK293
T1 sequence (Q6UVM3 1-1135): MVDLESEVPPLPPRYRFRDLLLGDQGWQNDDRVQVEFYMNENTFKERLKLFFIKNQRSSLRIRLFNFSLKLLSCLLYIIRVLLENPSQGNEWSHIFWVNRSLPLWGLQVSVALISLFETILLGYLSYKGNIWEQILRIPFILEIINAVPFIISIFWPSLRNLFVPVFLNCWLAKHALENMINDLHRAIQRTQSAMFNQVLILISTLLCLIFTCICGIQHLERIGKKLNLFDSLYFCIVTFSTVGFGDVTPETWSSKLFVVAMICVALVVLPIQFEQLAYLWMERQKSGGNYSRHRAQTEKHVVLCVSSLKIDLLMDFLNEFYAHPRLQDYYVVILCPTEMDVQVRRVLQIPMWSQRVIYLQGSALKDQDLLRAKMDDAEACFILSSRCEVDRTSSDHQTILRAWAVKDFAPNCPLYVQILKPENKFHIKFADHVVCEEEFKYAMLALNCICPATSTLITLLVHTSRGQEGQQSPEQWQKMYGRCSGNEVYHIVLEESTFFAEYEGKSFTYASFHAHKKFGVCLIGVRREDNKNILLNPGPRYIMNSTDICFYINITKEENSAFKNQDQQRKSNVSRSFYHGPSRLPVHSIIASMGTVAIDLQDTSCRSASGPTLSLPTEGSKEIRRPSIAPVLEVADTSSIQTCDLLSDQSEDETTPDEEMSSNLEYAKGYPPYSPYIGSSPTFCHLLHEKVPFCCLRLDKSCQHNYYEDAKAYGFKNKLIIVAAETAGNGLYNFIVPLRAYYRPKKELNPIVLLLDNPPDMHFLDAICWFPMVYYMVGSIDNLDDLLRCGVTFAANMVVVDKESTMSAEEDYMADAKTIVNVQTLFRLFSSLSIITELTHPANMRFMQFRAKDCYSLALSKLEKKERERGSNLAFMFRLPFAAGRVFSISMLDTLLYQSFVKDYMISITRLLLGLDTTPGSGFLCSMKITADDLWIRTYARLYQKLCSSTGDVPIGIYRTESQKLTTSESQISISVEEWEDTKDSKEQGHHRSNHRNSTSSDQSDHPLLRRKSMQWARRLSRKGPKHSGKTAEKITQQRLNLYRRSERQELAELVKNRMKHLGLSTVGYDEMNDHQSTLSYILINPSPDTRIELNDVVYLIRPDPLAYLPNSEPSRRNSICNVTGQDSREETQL
Assay: Tl+-flux selectivity panel in HEK-293 cells: SLICK
Type: cell-based
Conditions: HEK293, 10 µM test compound, relative to control SKF96365, read-out: Percent Inhibition ± SEM
Description: With a handful of analogs that offered improved SLACK potency relative to hit compound 8, we next proceeded to investigate the ancillary pharmacology of such compounds, both with respect to other Slo family members as well as versus a spectrum of diverse ion channels (Table 5). Thus, we screened four compounds (32, 48, 70, and 71) at 10 µM in our in-house selectivity panel of Tl^+-flux assays in HEK-293 cells stably expressing the target of interest. […] Some valuable SAR was noted as well. […] Reduction of inhibition at Maxi-K α1/β4 also followed. This SAR will be important to bear in mind for continued optimization within this series. […] Of particular note is the lack of significant hERG activity in this series, as activity versus that counter-target has been an issue with other SLACK inhibitors.
Stably transfected monoclonal HEK293 cell lines expressing Slick, Maxi-K α1/β3, Maxi-K α1/β4, CaV3.2, GIRK 1/2, KV2.1, KV7.2, NaV1.7, and TASK-1 were generated as previously described. Stably transfected monoclonal HEK293 cell lines expressing hERG were generated as previously described. CHO-K1 cells expressing human Slack and disease-associated human Slack mutations, G288S and A934T, were generated by transfecting a PiggyBac TRE mammalian expression vector (VectorBuilder, Chicago, IL, USA) containing KCNT1. FuGENE 6 (Promega, Madison, WI, USA) transfection reagent and protocol, together with Opti-MEM (Thermo Fisher Scientific, Walkham, MA, USA), were utilized.
The Tl^+ flux assays were conducted as previously described with modifications optimized for individual cell lines as described below. Following removal of cell culture media, cells were loaded with Tl^+-sensitive dye loading solution containing Thallos-AM (ION Biosciences, San Marcos, TX, USA), 1.25 mM Probenecid, and 0.3% Pluronic F-127 (MilliporeSigma, Burlington, MA, USA), in assay buffer comprised of Hanks Balanced Salt Solution (HBSS) (Thermo Fisher Scientific, Waltham, MA, USA) and 20 mM HEPES (Corning, Corning, NY, USA) at room temperature for one-hour. Dye loading solution was replaced with 20 μL/well of assay buffer prior to assaying. Cell plates were then loaded onto a Panoptic kinetic imaging plate reader (WaveFront Biosciences, Franklin, TN, USA). Data were acquired at 5 Hz (excitation 482 ± 35 nm, emission 536 ± 40 nm) for 10 s, at which time 20 μL/well of test compounds in assay buffer at 2-fold above the desired final concentration was added and allowed to incubate for 120 s. Next, 10 μL/well of Tl^+ stimulus buffer (129 mM Na gluconate, 1.2 mM CaSO4, 1 MgSO4, 1 mM Na2HPO4, 4.17 mM NaHCO3, 5.56 mM glucose, 2.5 mM Tl2SO4, and 10 mM HEPES pH 7.3) was added. Imaging was concluded after an additional 120 s.

With `CN(Cc1cccc(F)c1)c1nc2c(c(=O)n(Cc3ccccc3)c(=O)n2C)n1C` [Analog 48] the inhibition at 10 µM was 21 ± 3.1%.
Work on `COc1cccc(Cn2c(=O)c3c(nc(N(C)Cc4ccccc4)n3C)n(C)c2=O)c1` [Analog 32] yielded an inhibition at 10 µM of 28 ± 5.5%.
With `CCCCN(Cc1ccccc1)c1nc2c(c(=O)n(Cc3ccccc3)c(=O)n2C)n1C` [Analog 70] the inhibition at 10 µM was 18 ± 4.2%.
For `Cn1c(N(Cc2ccccc2)CC2CC2)nc2c1c(=O)n(Cc1ccccc1)c(=O)n2C` [Analog 71], the inhibition at 10 µM was 17 ± 2.5%.
